Test results published in patent publication US20200392161A1, “SHP2 PHOSPHATASE INHIBITORS AND METHODS OF USE THEREOF” (Relay Therapeutics, Inc., priority 2018, published 2020).
Where a name gives a salt, the structure may show the parent alone.

Target: T1, SHP2 (Homo sapiens, UniProt Q06124)
T1 sequence (Q06124 1-593): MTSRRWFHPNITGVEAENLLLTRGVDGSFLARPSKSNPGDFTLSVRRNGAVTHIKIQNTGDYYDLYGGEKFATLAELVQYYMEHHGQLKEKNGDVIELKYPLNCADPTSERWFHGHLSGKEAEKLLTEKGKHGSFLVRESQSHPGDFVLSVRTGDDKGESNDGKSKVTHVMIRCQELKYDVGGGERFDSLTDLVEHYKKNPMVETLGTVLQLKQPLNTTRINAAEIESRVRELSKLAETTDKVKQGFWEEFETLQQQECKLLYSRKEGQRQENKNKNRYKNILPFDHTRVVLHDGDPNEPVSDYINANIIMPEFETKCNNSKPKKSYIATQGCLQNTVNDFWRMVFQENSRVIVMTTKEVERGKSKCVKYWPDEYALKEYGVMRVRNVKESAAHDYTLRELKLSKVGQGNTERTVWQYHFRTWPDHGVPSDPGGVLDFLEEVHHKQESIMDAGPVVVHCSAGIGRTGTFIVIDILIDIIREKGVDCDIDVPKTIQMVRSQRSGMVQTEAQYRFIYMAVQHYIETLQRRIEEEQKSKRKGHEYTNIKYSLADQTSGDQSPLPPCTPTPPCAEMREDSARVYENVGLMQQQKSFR
Assay: SHP2 allosteric inhibition assay (DiFMUP prompt fluorescence)
Assay type: biochemical
Details: 0.25 nM SHP2, 0.5 μM IRS1_pY1172(dPEG8)pY1222 peptide, DiFMUP 100 μM
Excerpt: SHP2 Allosteric Inhibition Assay.
SHP2 is allosterically activated through binding of bis-tyrosyl-phosphorylated peptides to its Src Homology 2 (SH2) domains. The latter activation step leads to the release of the auto-inhibitory interface of SHP2, which in turn renders the SHP2 protein tyrosine phosphatase (PTP) active and available for substrate recognition and reaction catalysis. The catalytic activity of SHP2 was monitored using the surrogate substrate DiFMUP in a prompt fluorescence assay format.
The inhibitor dose response curves were analyzed using normalized IC50 regression curve fitting with control based normalization.

| SMILES | IC50 (Table 3) [µM] | further results |
| --- | --- | --- |
| CCC(=O)N(c1nnc(SCc2csc(-c3ccc(OC)c(OC)c3)n2)s1)C1CC1 [Compound C31] | > 1000 | – |
| CC1(N)CCN(c2ncnc3c(-c4cccc(Cl)c4Cl)csc23)CC1 [Compound D1, 1-(7-(2,3-dichlorophenyl)thieno[3,2-d]pyrimidin-4-yl)-4-methylpiperidin-4-amine formate] | – | IC50 (Table 4): 1 to 10 µM |
| COc1ccc(-c2nc(CSc3nnc(N(C(C)=O)C4CC4)s3)cs2)cc1OC [Compound C38] | > 1000 | – |
| CC1(N)CCN(c2nn3c(N)c(-c4cccc(Cl)c4Cl)nc3s2)CC1 [Compound A4, 2-(4-amino-4-methylpiperidin-1-yl)-6-(2,3-dichlorophenyl)imidazo[2,1-b][1,3,4]thiadiazol-5-amine formate] | – | IC50 (Table 1): > 20 µM |
| COCCn1cnnc1SCc1csc(-c2ccc(OC)c(OC)c2)n1 [Compound C15] | < 500 | – |
| CC1(N)CCN(c2cnn3c(-c4ccccc4Cl)coc23)CC1 [Compound E1, 1-(3-(2-chlorophenyl)pyrazolo[5,1-b]oxazol-7-yl)-4-methylpiperidin-4-amine formate] | – | IC50 (Table 5): 50 to 100 µM |
| NC1CCCN(C(=O)c2cnc(-c3ccc(C(F)(F)F)cc3)s2)CC1 (stereo not shown) [Compound C48] | > 1000 | – |
| CC1(CN)CCN(c2nn3c(N)c(-c4ccccc4Cl)nc3s2)C1 (stereo not shown) [Compound A6, 2-(3-(aminomethyl)-3-methylpyrrolidin-1-yl)-6-(2-chlorophenyl)imidazo[2,1-b][1,3,4]thiadiazol-5-amine] | – | IC50 (Table 1): 5 to 20 µM |
| Cc1c(-c2ccccc2Cl)nc2sc(N3CCC(C)(CN)C3)nn12 (stereo not shown) [Compound A10, (1-(6-(2-chlorophenyl)-5-methylimidazo[2,1-b][1,3,4]thiadiazol-2-yl)-3-methylpyrrolidin-3-yl)methanamine formate] | – | IC50 (Table 1): < 5 µM |
| CC1(N)CCN(c2cc(=O)n3c(-c4cccc(Cl)c4F)n[nH]c3n2)CC1 [Compound F3, 7-(4-amino-4-methylpiperidin-1-yl)-3-(3-chloro-2-fluorophenyl)-[1,2,4]triazolo[4,3-a]pyrimidin-5(1H)-one hydrochloride] | – | IC50 (Table 6): > 20 µM |
| CC1(N)CCN(C(=O)c2csc(-c3ccccc3Cl)n2)CC1 [Compound C1, (4-amino-4-methylpiperidin-1-yl)(2-(2-chlorophenyl)thiazol-4-yl)methanone formate] | < 500 | – |
| Clc1ccc(-c2nc(CSc3nncs3)cs2)cc1 [Compound C27] | > 1000 | – |
| CC1(CN)CCN(c2nn3c(N)c(-c4cccc(Cl)c4Cl)nc3s2)CC1 [Compound A9, 2-(4-(aminomethyl)-4-methylpiperidin-1-yl)-6-(2,3-dichlorophenyl)imidazo[2,1-b][1,3,4]thiadiazol-5-amine formate] | – | IC50 (Table 1): 5 to 20 µM |
| COc1ccc(-c2nc(CSc3nnc(-c4ccco4)o3)cs2)cc1OC [Compound C30] | > 1000 | – |
| Cc1ccc(-c2nc(C)c(C(=O)N3CCC(CN)C3)s2)c(C)c1 (stereo not shown) [Compound C47] | > 1000 | – |
| Cn1c(N2CCC(C)(CN)CC2)nc2[nH]nc(Sc3cccc(Cl)c3Cl)c2c1=O [Compound F7, 6-(4-(aminomethyl)-4-methylpiperidin-1-yl)-3-((2,3-dichlorophenyl)thio)-5-methyl-1H-pyrazolo[3,4-d]pyrimidin-4(5H)-one hydrochloride] | – | IC50 (Table 6): < 1 µM |
| Cc1nc(N2CCC(C)(CN)C2)sc1-c1ccccc1Cl (stereo not shown) [Compound B4, ((1-(5-(2-chlorophenyl)-4-methylthiazol-2-yl)-3-methylpyrrolidin-3-yl)methanamine formate] | – | IC50 (Table 2): > 100 µM |
| COc1ccc(-c2nc(CSc3nncs3)cs2)cc1 [Compound C28] | > 1000 | – |
| COc1cccc(Nc2nnc(SCc3csc(-c4ccc(OC)c(OC)c4)n3)s2)c1 [Compound C39] | > 1000 | – |
| COc1cc(-c2nc(CSc3nnc(-c4ccccc4C)n3C)cs2)ccc1O [Compound C18] | 500 to 1000 | – |
| O=c1c2[nH]nc(-c3cccc(Cl)c3Cl)c2ncn1C1CCNCC1 [Compound F5, 3-(2,3-dichlorophenyl)-6-(piperidin-4-yl)-1H-pyrazolo[4,3-d]pyrimidin-7(6H)-one] | – | IC50 (Table 6): 1 to 20 µM |
| c1ccc(-c2nc(CSc3nncs3)cs2)cc1 [Compound C40] | > 1000 | – |
| COc1ccc(-c2nc(CSc3nncn3-c3ccccc3)cs2)cc1OC [Compound C29] | > 1000 | – |
| Cc1cc2occ(-c3ccccc3Cl)n2n1 [Compound E3, 3-(2-chlorophenyl)-6-methylpyrazolo[5,1-b]oxazole] | – | IC50 (Table 5): > 100 µM |

Continued, in another order:

| IC50 (Table 3) [µM] | SMILES | further results |
| --- | --- | --- |
| 500 to 1000 | COc1ccc(-c2nc(CSc3nnc(C4CC4)n3N)cs2)cc1OC [Compound C10] | – |
| < 500 | COc1cc(-c2nc(CSc3nncs3)cs2)ccc1O [Compound C4] | – |
| 500 to 1000 | COc1ccc(-c2nc(CSc3nnc(NCC4CCCO4)s3)cs2)cc1OC (stereo not shown) [Compound C19] | – |
| 500 to 1000 | COc1ccc(-c2nc(CSc3nnnn3C)cs2)cc1OC [Compound C6] | – |
| 500 to 1000 | O=C(O)c1csc(-c2ccc(Cl)cc2Cl)n1 [Compound C5] | – |
| < 500 | COc1ccc(-c2nc(CSc3cccc[n+]3[O-])cs2)cc1OC [Compound C16] | – |
| > 1000 | CCOc1ccc(-c2nc(CSc3nnc(C)s3)cs2)cc1OC [Compound C36] | – |
